ChEMBL document CHEMBL5537116, “Synthesis and structure-activity optimization of hydroxypyridinones against rhabdomyolysis-induced acute kidney injury” (Eur J Med Chem, 2024)
pEC50, pIC50: −log10 of the molar value. The source made the active and inactive calls. No cut-off for these calls is given here.

Columns and labels:
[1] = Competitive binding affinity to Fe3+ ion assessed as metal chelating activity by measuring binding constant by calcein probe based fluorescence displacement assay
[2] = Antioxidant activity assessed as ABTS radical scavenging activity incubated for 6 mins by absorbance based microplate reader analysis; assay type: functional
HK-2 [3] = assay: Inhibition of RSL-3 induced ferroptosis in human HK-2 cells incubated for 48 hrs in presence of FAC; assay type: functional, cell-based; settings: HK-2, 48 h
[4] = Potency index, ratio of trolox IC50 to test compound IC50 for antioxidant activity assessed as ABTS radical scavenging activity incubated for 6 mins by absorbance based microplate reader analysis; assay type: functional
[5] = Cytotoxicity against human HK-2 cells assessed as cell growth inhibition incubated for 48 hrs by SRB assay; assay type: toxicity, cell-based
HK-2 [6] = assay: Anti-ferroptotic activity against RSL3-induced ferroptosis in human HK-2 cells assessed as decrease in lipid peroxidation by measuring fluorescent intensity preincubated with FAC for 2 hrs followed by compound addition and measured after 12 hrs by flow cytometry analysis; assay type: functional, cell-based
HK-2 [7] = assay: Upregulation in intracellular HIF-1alpha level in human HK-2 cells at 50 uM under normoxia condition incubated for 12 hrs by Western blot analysis; assay type: functional, cell-based
HK-2 [8] = assay: Upregulation in intracellular HIF-1alpha level in human HK-2 cells at 20 uM under normoxia condition incubated for 12 hrs by Western blot analysis; assay type: functional, cell-based
[9] = Sub-acute in C57BL/6 mouse assessed as change in body weight at 200 mg/kg, ip measured for 7 days; assay type: toxicity, organism-based; settings: in vivo, 168 h, time 7 day
Mus musculus [10] = assay: (§1) Reno-protective activity against glycerol-induced rhabdomyolysis acute kidney injury C57BL/6 mouse model assessed as decrease in iron accumulation in kidney at 4 to 10 mg/kg, ip preadministered with every 12 hrs of compound for 5 times in first three days with subsequent 1 hrs compound treatment after 16 hrs of water deprivation followed by glycerol administration and measured on day 5; assay type: functional, organism-based; settings: dose 4-10 mg/kg, time 5.0 day
Mus musculus [11] = assay: as §1, with “serum creatinine level” for “iron accumulation in kidney”, “4” for “4 to 10”; assay type: functional; design: scale not given: the % may be the effect or the level left; settings: time 5 day
Mus musculus [12] = assay: as §1, with “BUN level” for “iron accumulation in kidney”; assay type: functional, organism-based; settings: dose 4-10 mg/kg, time 5.0 day
Mus musculus [13] = assay: Upregulation of HIF-1alpha expression in C57BL/6 mouse kidney at 50 mg/kg, ip administered for every 12 hrs for 3 days and measured after 5 days; assay type: functional, organism-based
Mus musculus [14] = assay: as §1, with “serum creatinine level” for “iron accumulation in kidney”, “at” for “at 4 to”; assay type: functional; design: scale not given: the % may be the effect or the level left; settings: time 5 day
Mus musculus [15] = assay: as §1, with “serum creatinine level” for “iron accumulation in kidney”; assay type: functional, organism-based; settings: dose 4-10 mg/kg, time 5.0 day
Mus musculus [16] = assay: as §1, with “BUN level” for “iron accumulation in kidney”, “at” for “at 4 to”; assay type: functional; design: scale not given: the % may be the effect or the level left; settings: time 5 day
Mus musculus [17] = assay: as §1, with “assessed as downregulation of Ptgs2 mRNA expression at 4” for “assessed as decrease in iron accumulation in kidney at 4”, “day 5 by qRT-PCR analysis” for “day 5”; assay type: functional, organism-based; settings: dose 4-10 mg/kg, time 5.0 day
[18] = Toxicity in C57BL/6 mouse assessed as kidney damage at 10 mg/kg, ip measured for 3 days by H and E staining based analysis; assay type: organism-based; settings: in vivo, 72 h, time 3 day
Mus musculus [19] = assay: as §1, with “assessed as downregulation of […] mRNA expression at 4” for “assessed as decrease in iron accumulation in kidney at 4”, “day 5 by qRT-PCR analysis” for “day 5”; assay type: functional, organism-based; settings: dose 4-10 mg/kg, time 5.0 day
Mus musculus [20] = assay: as §1, with “BUN level” for “iron accumulation in kidney”, “4” for “4 to 10”; assay type: functional; design: scale not given: the % may be the effect or the level left; settings: time 5 day
[21] = biological target: Hypoxia-inducible factor 1-alpha (Homo sapiens) (UniProt Q16665); assay: Induction of HIF-1alpha stabilization in human HK-2 cells by Western blotting analysis; assay type: cell-based; settings: dose 5-20 µM
Chain of Hypoxia-inducible factor 1-alpha (Homo sapiens) (Q16665 whole entry, looked up): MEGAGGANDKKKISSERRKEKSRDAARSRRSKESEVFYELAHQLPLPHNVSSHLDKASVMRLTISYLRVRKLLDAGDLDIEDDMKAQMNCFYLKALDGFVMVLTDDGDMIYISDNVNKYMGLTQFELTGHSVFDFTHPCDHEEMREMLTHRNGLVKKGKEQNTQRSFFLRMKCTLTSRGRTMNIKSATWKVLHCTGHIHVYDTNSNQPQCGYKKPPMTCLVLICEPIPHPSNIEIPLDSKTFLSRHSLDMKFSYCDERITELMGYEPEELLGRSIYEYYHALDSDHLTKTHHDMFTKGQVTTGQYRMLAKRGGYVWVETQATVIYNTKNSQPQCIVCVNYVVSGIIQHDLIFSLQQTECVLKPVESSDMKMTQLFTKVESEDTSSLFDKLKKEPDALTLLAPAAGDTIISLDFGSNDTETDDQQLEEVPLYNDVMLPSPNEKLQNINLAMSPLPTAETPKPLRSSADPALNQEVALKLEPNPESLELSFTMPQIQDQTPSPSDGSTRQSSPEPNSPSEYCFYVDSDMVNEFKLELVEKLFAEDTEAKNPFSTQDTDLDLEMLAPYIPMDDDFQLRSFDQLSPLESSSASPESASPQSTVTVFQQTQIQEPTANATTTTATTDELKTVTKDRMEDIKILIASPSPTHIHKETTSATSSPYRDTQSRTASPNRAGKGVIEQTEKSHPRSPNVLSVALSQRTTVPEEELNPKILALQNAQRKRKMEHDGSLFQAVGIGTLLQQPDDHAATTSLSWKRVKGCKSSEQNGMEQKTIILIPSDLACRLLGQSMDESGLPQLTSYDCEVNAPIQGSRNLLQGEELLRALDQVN

[22] = Sub-acute in C57BL/6 mouse assessed as animal death at 1 mg/kg, ip measured for 7 days; assay type: toxicity, organism-based; settings: in vivo, 168 h, time 7 day
[23] = Sub-acute in C57BL/6 mouse assessed as poisoning symptoms at 1 mg/kg, ip measured for 7 days; assay type: toxicity, organism-based; settings: in vivo, 168 h, time 7 day
[24] = Sub-acute in C57BL/6 mouse assessed as animal death at 1 mg/kg, ip measured on day 2; assay type: toxicity, organism-based; settings: in vivo, 48 h, time 2 day
Mus musculus [25] = assay: as §1, with “BUN level” for “iron accumulation in kidney”, “50” for “4 to 10”; assay type: functional; design: scale not given: the % may be the effect or the level left; settings: time 5 day
Mus musculus [26] = assay: as §1, with “serum creatinine level” for “iron accumulation in kidney”, “50” for “4 to 10”; assay type: functional; design: scale not given: the % may be the effect or the level left; settings: time 5 day

For `Cc1c(O)c(=O)ccn1-c1ccc(OCCCN2CCOCC2)cc1`, the Kb [1] was 1.23 10^22/M, the pIC50 [2] was 4.76 and the pEC50 (HK-2 [3]) was 4.70. For the same compound, the Ratio IC50 [4] was 1.5, the CC50 at 48 h [5] was 78 µM and the Activity (HK-2 [6]) was “Active”.

In the case of `Cc1c(O)c(=O)ccn1-c1ccc(N2CCN(C)CC2)cc1`, the Kb [1] was 1.3 10^22/M, the pEC50 (HK-2 [3]) was 4.22 and the Activity (HK-2 [7]) was “Active”. The CC50 at 48 h [5] was 81 µM.

In the case of `Cc1c(O)c(=O)ccn1-c1ccc(NCCN(C)C)cc1`, the Kb [1] was 1.4 10^22/M, the pEC50 (HK-2 [3]) was 4.46 and the CC50 at 48 h [5] was greater than 100 µM.

With `Cc1c(O)c(=O)ccn1-c1ccc(N(C)CCO)cc1` the Kb [1] was 1.15 10^22/M, the pEC50 (HK-2 [3]) was 4.34 and the CC50 at 48 h [5] was greater than 100 µM.

In the case of `Cc1c(O)c(=O)ccn1CCc1ccccc1`, the Kb [1] was 1 10^22/M, the pEC50 (HK-2 [3]) was less than 4.00 and the CC50 at 48 h [5] was greater than 100 µM.

For `Cc1c(O)c(=O)ccn1-c1ccc(OC2CCN(C)C2)cc1` (centres undefined), the Kb [1] was 1.35 10^22/M, the pEC50 (HK-2 [3]) was less than 4.00 and the CC50 at 48 h [5] was greater than 100 µM.

In the case of `Cc1c(C)c2c(c(C)c1O)CCC(C)(C(=O)O)O2` (centres undefined) [TROLOX], the pIC50 [2] was 4.47.

For `Cc1c(O)c(=O)ccn1-c1ccc(OCCN(C)C)cc1`, the Kb [1] was 1.37 10^22/M, the pIC50 [2] was 4.64 and the pEC50 (HK-2 [3]) was 4.74. The Ratio IC50 [4] was 1.5, the CC50 at 48 h [5] was greater than 100 µM and the Activity (HK-2 [6]) was “Active”.

With `Cc1c(O)c(=O)ccn1-c1ccc(OCCN2CCCCC2)cc1` the Kb [1] was 2.23 10^22/M, the pEC50 (HK-2 [3]) was 4.07 and the CC50 at 48 h [5] was greater than 100 µM.

With `Cc1c(O)c(=O)ccn1CCN(C)C` the Kb [1] was 1.21 10^22/M, the pEC50 (HK-2 [3]) was less than 4.00 and the CC50 at 48 h [5] was greater than 100 µM.

In the case of `Cc1c(O)c(=O)ccn1-c1ccc(N(C)C)cc1`, the Kb [1] was 0.98 10^22/M, the pEC50 (HK-2 [3]) was 4.35 and the CC50 at 48 h [5] was greater than 100 µM.

With `Cc1c(O)c(=O)ccn1-c1ccc(NCCN2CCN(C)CC2)cc1` the Kb [1] was 1.22 10^22/M, the pEC50 (HK-2 [3]) was 4.36 and the CC50 at 48 h [5] was greater than 100 µM.

In the case of `Cc1c(O)c(=O)ccn1-c1ccc(N(C)CCN(C)C)cc1.Cl`, the Activity (HK-2 [8]) was “Active”, the Kb [1] was 1.16 10^22/M and the Activity [9] was “Non-Toxic”. For the same compound, the Activity (Mus musculus [10]) was “Active”, the Activity (Mus musculus [11]) was 14% and the pIC50 [2] was 4.91. For the same compound, the Activity (Mus musculus [12]) was “Active”, the Activity (Mus musculus [13]) was “Active” and the pEC50 (HK-2 [3]) was 4.70. The Activity (Mus musculus [14]) was 68%, the Activity (Mus musculus [15]) was “Active” and the Activity (Mus musculus [16]) was 44%. For the same compound, the Ratio IC50 [4] was 1.5, the Activity (Mus musculus [17]) was “Active” and the Activity [18] was “Non-Toxic”. The Activity (Mus musculus [19]) was “Active”, the Activity (Mus musculus [20]) was 19% and the CC50 at 48 h [5] was greater than 100 µM. The Activity (HK-2 [6]) was “Active”, the Activity [21] was “Dose-Dependent Effect” and the Activity [22] was “Non-Toxic”. For the same compound, the Activity [23] was “Non-Toxic”.

With `COc1cc(N2CCN(C)CC2)ccc1-n1ccc(=O)c(O)c1C` the Kb [1] was 1.88 10^22/M, the pEC50 (HK-2 [3]) was less than 4.00 and the CC50 at 48 h [5] was greater than 100 µM.

With `Cc1c(O)c(=O)ccn1-c1ccc(N2CCN(C)CC2)c(F)c1` the Kb [1] was 1.17 10^22/M, the pEC50 (HK-2 [3]) was 4.03 and the CC50 at 48 h [5] was greater than 100 µM.

For `Cc1c(O)c(=O)ccn1-c1ccc(OCC2CCN(C)CC2)cc1`, the Kb [1] was 1.12 10^22/M, the pEC50 (HK-2 [3]) was 4.37 and the CC50 at 48 h [5] was greater than 100 µM.

In the case of `Cc1c(O)c(=O)ccn1CC1CCCCC1`, the Kb [1] was 1.32 10^22/M, the pEC50 (HK-2 [3]) was less than 4.00 and the CC50 at 48 h [5] was greater than 100 µM.

In the case of `Cc1c(O)c(=O)ccn1C` [DEFERIPRONE], the Kb [1] was 1.52 10^22/M, the pIC50 [2] was 4.80 and the pEC50 (HK-2 [3]) was less than 4.00. The Activity [24] was “Toxic”, the Activity (Mus musculus [25]) was 18% and the CC50 at 48 h [5] was greater than 100 µM. For the same compound, the Activity (Mus musculus [26]) was 19%.

In the case of `Cc1c(O)c(=O)ccn1-c1ccc(OCCOCCN(C)C)cc1`, the Kb [1] was 1.79 10^22/M, the pIC50 [2] was 4.65 and the pEC50 (HK-2 [3]) was 4.55. For the same compound, the Ratio IC50 [4] was 1.5, the CC50 at 48 h [5] was 68 µM and the Activity (HK-2 [6]) was “Active”.

For `Cc1c(O)c(=O)ccn1-c1ccc(N2CCOCC2)cc1`, the Kb [1] was 1.33 10^22/M, the pEC50 (HK-2 [3]) was 4.24 and the CC50 at 48 h [5] was greater than 100 µM.

For `CCc1c(O)c(=O)ccn1CCc1ccccc1`, the Kb [1] was 1.69 10^22/M, the pEC50 (HK-2 [3]) was less than 4.00 and the CC50 at 48 h [5] was greater than 100 µM.
